Patent US6946442B2, “Method of hastening cervical ripening” (priority 1994, dated 2005)

Assays:
[1] = tested on: VEGF165 mRNA; assay: Northern blot hybridisation, VEGF165 mRNA in non-pregnant cervical tissue explants; assay type: cell-based, human; settings: 48 hours
Description: Human uterine non-pregnant cervix tissue was obtained from non-malignant hysterectomies. The samples were maintained in phenol red free culture media DMEM supplemented with penicillin (1%), streptomycin (1%) and L-Glutamine (1%) and transferred to the laboratory on ice. The biopsies were washed in ice-cold saline solution then cut into small sections 1 to 2 mm and incubated in the above culture medium in 60×15 mm petri dishes at 37° C. in 5% CO2/95% air. Progesterone (P2) was added to the culture medium at concentrations of 10^−4, 10^−6 and 10^−8 M. 17−β Estradiol (E2) was added to the culture medium either alone at concentrations of 10^−6, 10^−7 and 10^−8 M or for 2 hours to prime the cervical explants at a concentration of 10^−7 M, followed by addition of Progesterone (P2) at concentrations ranging from 10^31 4 to 10^−8 M. The effect of VEGF165 (1, 10, 50, 100, 200 ng/ml) and PAF (10^−6−10^−10 M) in the non-pregnant cervical explants was also investigated. This culture system was chosen because it allows study of the intact tissues in their own matrix and avoids the potentially artefact-producing procedures of cell dispersion and culture. In this system, the cells remain intact for at least 5 days. RNA (40 μg/lane) was loaded onto a 1.2% agarose/formaldehyde gel, electrophoretically separated, transferred onto Hybond nylon membranes, and immobilised by exposure to U.V. light for 5 min. Membranes were prehybridized at 42° C. for 8 hours in a solution containing 50% formamide, 5×SSC, 5×Denhardt's solution, 0.5% SDS and salmon sperm DNA at 150 μg/ml. The VEGF165 cDNA was labelled with [α-^32P]dCTP by random-primer extension. 18s oligonucleotide probe labelled by T4 polynucleotide kinase with […] was used to determine the relative amount of RNA loaded in each lane by rehybridizing the blots that have previously been probed with VEGF165. Hybridisation was done under the same conditions with the labelled probe for 18 hours at 42° C. […]

[2] = tested on: VEGF protein expression; assay: Western blot analysis, VEGF protein expression in non-pregnant cervical explants and culture medium; assay type: cell-based, human
Description: Human uterine non-pregnant cervix tissue was obtained from non-malignant hysterectomies. The samples were maintained in phenol red free culture media DMEM supplemented with penicillin (1%), streptomycin (1%) and L-Glutamine (1%) and transferred to the laboratory on ice. The biopsies were washed in ice-cold saline solution then cut into small sections 1 to 2 mm and incubated in the above culture medium in 60×15 mm petri dishes at 37° C. in 5% CO2/95% air. Progesterone (P2) was added to the culture medium at concentrations of 10^−4, 10^−6 and 10^−8 M. 17−β Estradiol (E2) was added to the culture medium either alone at concentrations of 10^−6, […] M, followed by addition of Progesterone (P2) at concentrations ranging from 10^31 4 to 10^−8 M. The effect of VEGF165 (1, 10, 50, 100, 200 ng/ml) and PAF (10^−6−10^−10 M) in the non-pregnant cervical explants was also investigated. This culture system was chosen because it allows study of the intact tissues in their own matrix and avoids the potentially artefact-producing procedures of cell dispersion and culture.
Cervical tissue, after having been stimulated with VEGF165 or PAF for 24 hours or with the ovarian steroid hormones, 17β-estradiol (E2) and progesterone (P2), for 48 hours, was washed twice in ice-cold PBS and homogenised in ice-cold, high salt lysis buffer (containing 0.4 M KCl, 20 mM HEPES, 1 mM DTT, 20% glycerol, 0.5 mg/ml Bacitracin, 40 μg/ml PMSF, 5 μg/ml Peptastin, 5 μg/ml Leupeptin). Homogenates were centrifuged at 12,000 revolutions/min for 15 minutes and the supernatants containing extracted protein were collected. The culture medium used to incubate the tissue with or without E2, P2 or E2+P2 was also collected, centrifuged. To the supernatant, 3 volumes of ethanol were added and stored at −70° C. for at least 5 hours. Then, the culture medium/ethanol suspension was centrifuged at 10,000 rpm for 10 min and the pellet containing the protein was resuspended in lysis buffer. Total protein, extracted from both tissue and medium, was quantified with the Bio-Rad protein assay, and 500 ng of protein from each sample was diluted in loading buffer (containing 0.02 M Tris-HCl, 0.002 M EDTA, 2% SDS, 10% mercaptoethanol, 20% glycerol, bromophenol blue). Samples were subjected to electrophoresis in a 12% polyacrylamide gel with 5% stacking gel and transferred overnight at 36V onto a nitrocellulose membrane. The membrane was blocked at RT with 1% skimmed milk in Tris-buffered saline solution before incubation with an antiserum (diluted 1:500) directed against the rabbit VEGF165 at 4° C. After a 15 min. wash and 2×5 min. washes with Tris-buffered saline solution at room temperature (RT), the membrane was incubated in an anti-rabbit secondary Ab conjugated to alkaline phosphatase. In case of Western blotting experiments for Connexin-43, the membrane was blocked overnight at 4° C. in blocking buffer (1% BSA in 10 mM Tris pH 7.5, 100 mM NaCl, 0.1% Tween 20), before incubation with a monoclonal antibody directed against Connexin-43 again overnight at 4° C. After a 6×5 min. washes with Tris-buffered saline solution, the membrane was incubated in a mouse secondary Ab conjugated to alkaline phosphatase. A chemiluminescence system (ECL-Amersham) was used to visualise the presence of VEGF165, Connexin-43 or Flt-1 protein. This is a highly sensitive and quantitative assay for detecting proteins immobilised on membranes.
Cervical tissue explants in culture medium were exposed to various concentrations of the ovarian steroid hormones, 17β-estradiol (E2) and progesterone (P2), for 48 hours, followed by extraction of protein from the tissue as well as the culture medium.

[3] = tested on: pregnant rats; assay: Preterm delivery induced by progesterone receptor antagonist in pregnant rats; assay type: in vivo, Sprague-Dawley rats; settings: 10 mg s.c. on day 19, in 24 h
Description: Treatments (Protocols A and B): Mouse recombinant VEGF164 (the murine equivalent of human VEGF165) was dissolved at a concentration of 10 and 100 ng/ml gel. Control animals received applications of gel only. Some animals were injected on day 19 s.c. with 10 mg progesterone receptor antagonist RU486, a protocol which induces in 24 h preterm delivery in 80% of animals.

[4] = tested on: Connexin-43; settings: non-pregnant myometrial explants, FIG. 11A
Description: Cervical tissue, after having been stimulated with VEGF165 or PAF for 24 hours or with the ovarian steroid hormones, 17β-estradiol (E2) and progesterone (P2), for 48 hours, was washed twice in ice-cold PBS and homogenised in ice-cold, high salt lysis buffer (containing 0.4 M KCl, 20 mM HEPES, 1 mM DTT, 20% glycerol, 0.5 mg/ml Bacitracin, 40 μg/ml PMSF, 5 μg/ml Peptastin, 5 μg/ml Leupeptin). Homogenates were centrifuged at 12,000 revolutions/min for 15 minutes and the supernatants containing extracted protein were collected. The culture medium used to incubate the tissue with or without E2, P2 or E2+P2 was also collected, centrifuged. To the supernatant, 3 volumes of ethanol were added and stored at −70° C. for at least 5 hours. Then, the culture medium/ethanol suspension was centrifuged at 10,000 rpm for 10 min and the pellet containing the protein was resuspended in lysis buffer. Total protein, extracted from both tissue and medium, was quantified with the Bio-Rad protein assay, and 500 ng of protein from each sample was diluted in loading buffer (containing 0.02 M Tris-HCl, 0.002 M EDTA, 2% SDS, 10% mercaptoethanol, 20% glycerol, bromophenol blue). […] This is a highly sensitive and quantitative assay for detecting proteins immobilised on membranes.

[5] = tested on: rat cervix; assay: Tensile properties (stress-strain, extensibility) of isolated cervix after intravaginal treatment of pregnant rats; assay type: in vivo, Sprague-Dawley rats; settings: for cervical extensibility: 100 ng/ml gel intravaginally
Description: Control animals received applications of gel only.
The tensile properties of the isolated cervix were evaluated using the Shimadzu EZ-Test instrumentation using a test regimen which mimicked the conditions during labour. Briefly, the cervix was suspended between two hooks by means of threads passed through the cervical canal. It was then placed in a 40 ml tissue bath containing 10 mM HEPES/PBS solution (pH=7.4) maintained at 25° C. […] Each cervix was allowed 30 min. to equilibrate. The lower hook was fixed while the upper hook was movable, to simultaneously record displacement and force with a sample rate of 20 Hz. […] The upper hook was moved until a small resistance of the tissue (20 mN) was recorded after which the tester automatically moved the upper hook to incrementally stretch the cervix in steps of 0.4 mm. at 1 min. intervals. Between subsequent stretches the hook rested for 1 min. allowing the cervix to accommodate. During the accommodation periods the cervix reverted back to a relaxed state, therefore diminishing the opposed resistance and thus the tension recorded by the tester. FIG. 15 illustrates a typical stress-strain plot of a rat cervix. […] At YP permanent morphological changes and breaks in the material begin to occur. Break-point (BP) is the moment where the tissue completely breaks and the load abruptly falls toward zero. To quantify the elastic behaviour of the cervix (cervical resistance), straight lines are fitted through the linear portion of the force versus displacement curve. The slopes of the upper, lower and mid-point regression lines that are related to Young's modulus for elastic materials were used to best characterise the tensile properties of the sample. A larger slope indicates a higher resistance to dilation, therefore lower extensibility.

[6] = tested on: Connexin-43; assay: Western blot, Connexin-43 expression in non-pregnant cervical explants; assay type: cell-based, human
Description: Human uterine non-pregnant cervix tissue was obtained from non-malignant hysterectomies. The samples were maintained in phenol red free culture media DMEM supplemented with penicillin (1%), streptomycin (1%) and L-Glutamine (1%) and transferred to the laboratory on ice. The biopsies were washed in ice-cold saline solution then cut into small sections 1 to 2 mm and incubated in the above culture medium in 60×15 mm petri dishes at 37° C. in 5% CO2/95% air. Progesterone (P2) was added to the culture medium at concentrations of 10^−4, 10^−6 and 10^−8 M. 17−β Estradiol (E2) was added to the culture medium either alone at concentrations of 10^−6, 10^−7 and 10^−8 M or for 2 hours to prime the cervical explants at a concentration of 10^−7 M, followed by addition of Progesterone (P2) at concentrations ranging from 10^31 4 to 10^−8 M. The effect of VEGF165 (1, 10, 50, 100, 200 ng/ml) and PAF (10^−6−10^−10 M) in the non-pregnant cervical explants was also investigated. This culture system was chosen because it allows study of the intact tissues in their own matrix and avoids the potentially artefact-producing procedures of cell dispersion and culture. In this system, the cells remain intact for at least 5 days.

Molecule: C[C@]12CC[C@@H]3c4ccc(O)cc4CC[C@H]3[C@@H]1CC[C@@H]2O [17β-estradiol]
- VEGF mRNA compared to Control ([1]; 17β-estradiol alone, non-pregnant cervical explants): up-regulates
- secreted forms of VEGF in the culture medium ([2]; 17β-estradiol, 48 hours, culture medium): up-regulates
- VEGF protein in the tissue itself ([2]; 17β-estradiol, 48 hours, tissue): no effect

Molecule: CC#C[C@]1(O)CC[C@H]2[C@@H]3CCC4=CC(=O)CCC4=C3[C@@H](c3ccc(N(C)C)cc3)C[C@@]21C [RU486]
- preterm delivery [3]: 80 % of animals

Molecule: CC(=O)[C@H]1CC[C@H]2[C@@H]3CCC4=CC(=O)CC[C@]4(C)[C@H]3CC[C@]12C [progesterone]
- VEGF mRNA ([1]; progesterone at 10^−4 M in the presence of 10^−7 M 17β-estradiol): down-regulated
- VEGF mRNA ([1]; progesterone at 10^−4 M): down-regulated
- VEGF protein expression in the culture medium ([2]; explants primed with 17β-estradiol for 4 hours, then increasing concentration of progesterone, culture medium): dose-dependent increase
- VEGF protein expression in the tissue ([2]; explants primed with 17β-estradiol for 4 hours, then increasing concentration of progesterone, tissue): dose-dependent increase
- VEGF protein in the culture medium compared with Control ([2]; progesterone at 10^−4 M, 48 hours, culture medium): down-regulated
- VEGF protein in the tissue itself compared with Control ([2]; progesterone at 10^−4 M, 48 hours, tissue): down-regulated

Molecule: VEGF
- connexin-43 expression in myometrial explants [4]: up-regulation
- slope of stress-strain curve ([5]; 10 ng/ml gel intravaginally, protocol B (day 16 to day 20), significant only when applied later in pregnancy): statistically significant decrease
- cervical extensibility ([5]; protocol A (day 12 to day 16)): significantly increased
- cervical extensibility ([5]; protocol B (day 16 to day 20)): significantly increased
- connexin-43 expression in cervical explants ([6]; non-pregnant cervical explants, FIG. 11B): up-regulation

Molecule: platelet-activating factor [PAF]
- VEGF expression in non-pregnant cervix ([2]; PAF at various concentrations, 24 hours): increases
- connexin-43 expression in cervix ([6]; PAF at various concentrations, non-pregnant cervix, FIG. 12): up-regulation
